Values belong to the molecule of their own block, whether it stands above or below them. Activity calls are given as the source filed them.
Assays:
[1] = target: T1, Oxysterols receptor LXR-beta (Homo sapiens, UniProt P55055); type: functional, cell-based;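 also: agonist activity at LXR measured by a cell-based luminescence readout across a dose range, run as a counterscreen for daf-12 agonists; HEK293 cells with Gal4-LXR fusion and GAL4-driven luciferase reporter; potency for activation of Gal4-LXR reporter so compounds are agonists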
T1 sequence (P55055 whole entry): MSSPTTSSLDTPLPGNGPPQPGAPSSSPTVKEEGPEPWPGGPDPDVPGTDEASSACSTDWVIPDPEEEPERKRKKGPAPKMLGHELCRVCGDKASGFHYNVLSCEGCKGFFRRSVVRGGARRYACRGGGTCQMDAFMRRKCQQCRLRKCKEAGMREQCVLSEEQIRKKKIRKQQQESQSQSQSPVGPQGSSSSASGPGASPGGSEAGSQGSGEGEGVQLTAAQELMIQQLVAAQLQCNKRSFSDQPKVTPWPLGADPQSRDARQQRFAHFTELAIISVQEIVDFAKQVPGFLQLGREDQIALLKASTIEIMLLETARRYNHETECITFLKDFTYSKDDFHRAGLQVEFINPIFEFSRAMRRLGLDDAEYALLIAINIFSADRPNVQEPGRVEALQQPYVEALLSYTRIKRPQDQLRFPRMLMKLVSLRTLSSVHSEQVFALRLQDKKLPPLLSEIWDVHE

Albumin = Albumin (Bos taurus, UniProt P02769); experiment: Counterscreen for inhibitors of T-cell receptor (TCR)-CD3 interaction: Fluorescence-based biochemical high throughput dose response assay to identify inhibitors of T-cell receptor (TCR)-CD3 interaction using a TAMRA-labeled BSA probe.; type: functional
Sequence of Albumin (P02769 whole entry): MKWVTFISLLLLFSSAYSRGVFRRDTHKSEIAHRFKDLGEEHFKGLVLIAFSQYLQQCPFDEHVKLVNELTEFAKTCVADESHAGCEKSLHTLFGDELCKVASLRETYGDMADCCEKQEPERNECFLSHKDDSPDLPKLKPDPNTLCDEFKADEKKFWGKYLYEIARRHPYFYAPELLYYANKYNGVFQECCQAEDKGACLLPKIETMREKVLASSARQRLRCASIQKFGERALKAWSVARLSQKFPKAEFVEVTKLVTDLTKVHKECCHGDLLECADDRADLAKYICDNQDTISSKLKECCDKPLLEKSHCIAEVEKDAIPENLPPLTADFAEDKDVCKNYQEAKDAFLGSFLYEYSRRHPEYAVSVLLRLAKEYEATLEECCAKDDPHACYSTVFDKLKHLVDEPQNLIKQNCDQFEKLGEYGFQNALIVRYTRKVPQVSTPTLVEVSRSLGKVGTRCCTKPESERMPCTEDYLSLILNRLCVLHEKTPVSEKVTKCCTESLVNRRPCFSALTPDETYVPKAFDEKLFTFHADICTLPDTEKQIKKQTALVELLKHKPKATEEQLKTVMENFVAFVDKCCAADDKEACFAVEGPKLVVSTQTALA

Streptococcus = experiment: GAS UMAA2166 growth inhibition – luminescence, BacTiterGlo, counter-screen for streptokinase expression inhibitor project, dose response (AID 1915); type: functional, organism-based;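 also: potency for reduction of bacterial viability or growth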
[2] = tested on: Streptococcus sp. 'group A'; experiment: Streptococcus pyogenes SK(-)GAS viability under kanamycin – luminescence, BacTiterGlo, confirmation, counter-screen for streptokinase expression inhibitor project, dose response (AID 1900); type: functional, organism-based
[3] = CMV-driven luciferase expression suppression in HEK293 – cell-based, luminescence, dry powder, counter-screen for Pax8 inhibitor project, dose response (AID 743020); type: functional
[4] = fluconazole-exposed Candida albicans growth modulators – fluorescence, retest, confirmation (AID 2467); type: functional, cell-based
Paired box protein Pax-8 = Paired box protein Pax-8 (Homo sapiens, UniProt Q06710); experiment: PAX8 transcriptional activity inhibition in RMG-I – RMG-I cells, luciferase, cherry-pick, dose response (AID 687027); type: functional, cell-based;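 also: luciferase reporter driven by Pax8 target thyroperoxidase promoter measured by SteadyGlo luminescence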
Sequence of Paired box protein Pax-8 (Q06710 whole entry): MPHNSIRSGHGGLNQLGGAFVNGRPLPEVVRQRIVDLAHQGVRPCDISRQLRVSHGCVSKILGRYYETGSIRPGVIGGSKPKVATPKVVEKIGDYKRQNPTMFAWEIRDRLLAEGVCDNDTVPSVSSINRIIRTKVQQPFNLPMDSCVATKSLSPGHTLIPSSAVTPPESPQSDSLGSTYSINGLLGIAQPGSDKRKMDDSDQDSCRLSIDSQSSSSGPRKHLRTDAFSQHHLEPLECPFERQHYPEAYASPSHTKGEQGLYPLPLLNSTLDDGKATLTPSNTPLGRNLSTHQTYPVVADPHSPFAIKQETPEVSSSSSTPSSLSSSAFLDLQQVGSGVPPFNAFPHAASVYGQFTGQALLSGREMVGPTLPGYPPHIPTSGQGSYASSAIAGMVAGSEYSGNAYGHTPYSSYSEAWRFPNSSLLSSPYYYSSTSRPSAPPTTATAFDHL

[5] = target: ATP-dependent molecular chaperone HSP82 (Candida albicans (strain WO-1) (Yeast), UniProt C4YTQ8); experiment: steroid-induced GRE reporter decrease in yeast – S. cerevisiae, luminescence, Hsp90 inhibitor project, dose response (AID 2400); type: functional, cell-based;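 also: beta-galactosidase luminescence from glucocorticoid response element reporter as proxy for Hsp90 function; inhibitor potency where signal loss means Hsp90 inhibition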
Sequence of ATP-dependent molecular chaperone HSP82 (C4YTQ8 whole entry): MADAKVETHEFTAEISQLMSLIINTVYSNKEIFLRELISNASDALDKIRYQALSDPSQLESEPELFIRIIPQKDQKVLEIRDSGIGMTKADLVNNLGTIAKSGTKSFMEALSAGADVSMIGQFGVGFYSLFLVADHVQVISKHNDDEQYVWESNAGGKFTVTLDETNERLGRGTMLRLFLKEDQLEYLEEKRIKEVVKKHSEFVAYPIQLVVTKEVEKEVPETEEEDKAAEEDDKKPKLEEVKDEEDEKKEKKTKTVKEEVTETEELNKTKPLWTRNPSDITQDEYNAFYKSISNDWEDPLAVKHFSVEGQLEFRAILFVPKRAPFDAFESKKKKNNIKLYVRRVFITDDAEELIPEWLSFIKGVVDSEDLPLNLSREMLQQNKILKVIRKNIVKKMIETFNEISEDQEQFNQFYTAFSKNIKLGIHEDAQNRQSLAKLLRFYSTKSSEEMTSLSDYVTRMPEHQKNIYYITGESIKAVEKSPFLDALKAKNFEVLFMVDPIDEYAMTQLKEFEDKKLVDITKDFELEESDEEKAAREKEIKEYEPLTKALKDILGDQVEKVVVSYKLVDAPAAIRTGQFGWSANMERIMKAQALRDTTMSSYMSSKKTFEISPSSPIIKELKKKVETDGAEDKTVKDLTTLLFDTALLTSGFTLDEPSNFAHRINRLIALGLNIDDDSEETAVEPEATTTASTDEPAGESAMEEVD

[6] = NIH-3T3 fibroblast cytotoxicity, dose response, cytotoxicity control, cell-based, fluorescence, Alamar Blue, secondary assay (AID 2327); type: functional;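 also: NIH-3T3 mouse fibroblasts cultured with fluconazole at 8 µg/mL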
[7] = target: Serine/threonine-protein phosphatase (Candida dubliniensis (strain CD36 / CBS 7987 / NCPF 3949 / NRRLY-17841) (Yeast), UniProt B9W6M3); experiment: blockers of CaCl2-induced CDRE-lacZ signaling – S. cerevisiae, luminescence, secondary, dose response (AID 2388); type: functional, cell-based;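 also: yeast reporter cells carrying a calcineurin-responsive lacZ construct stimulated with calcium chloride; luminescent beta-galactosidase reporter signal in whole cells rather than isolated phosphatase activity; potency for inhibition where a drop in reporter signal means calcineurin blockade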
Sequence of Serine/threonine-protein phosphatase (B9W6M3 whole entry): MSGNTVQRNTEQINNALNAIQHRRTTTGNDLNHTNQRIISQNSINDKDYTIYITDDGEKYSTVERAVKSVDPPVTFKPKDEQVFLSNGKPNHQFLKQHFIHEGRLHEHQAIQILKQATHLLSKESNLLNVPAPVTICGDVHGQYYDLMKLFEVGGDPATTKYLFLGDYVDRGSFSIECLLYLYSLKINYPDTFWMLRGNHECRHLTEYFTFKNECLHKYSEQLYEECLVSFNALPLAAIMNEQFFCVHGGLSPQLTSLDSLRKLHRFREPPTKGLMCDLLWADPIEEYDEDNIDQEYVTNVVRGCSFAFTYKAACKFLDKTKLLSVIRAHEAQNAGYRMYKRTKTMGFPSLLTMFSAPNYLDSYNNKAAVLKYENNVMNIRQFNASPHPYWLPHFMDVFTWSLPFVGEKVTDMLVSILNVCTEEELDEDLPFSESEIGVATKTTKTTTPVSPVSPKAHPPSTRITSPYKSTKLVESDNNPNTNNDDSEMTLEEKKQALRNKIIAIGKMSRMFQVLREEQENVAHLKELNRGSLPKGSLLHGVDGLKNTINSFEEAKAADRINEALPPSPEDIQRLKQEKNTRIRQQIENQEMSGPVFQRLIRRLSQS

Plasmodium falciparum = experiment: antimalarial activity against intraerythrocytic 3D7 parasites – 3D7 strain, red blood cells, SYBR Green, cherry-picked, dose response (AID 652047); type: functional
HeLa = experiment: viability loss in HeLa cells – cell-based, ATP luminescence, cherry-pick samples, cytotoxicity control, dose response (AID 687004); type: functional; conditions: Homo sapiens
[8] = target: Nuclear receptor subfamily 0 group B member 1 (Homo sapiens, UniProt P51843); type: functional, cell-based;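 also: HEK293T cells transfected with SF-1 and DAX-1 plus StAR promoter luciferase reporter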
Sequence of Nuclear receptor subfamily 0 group B member 1 (P51843 whole entry): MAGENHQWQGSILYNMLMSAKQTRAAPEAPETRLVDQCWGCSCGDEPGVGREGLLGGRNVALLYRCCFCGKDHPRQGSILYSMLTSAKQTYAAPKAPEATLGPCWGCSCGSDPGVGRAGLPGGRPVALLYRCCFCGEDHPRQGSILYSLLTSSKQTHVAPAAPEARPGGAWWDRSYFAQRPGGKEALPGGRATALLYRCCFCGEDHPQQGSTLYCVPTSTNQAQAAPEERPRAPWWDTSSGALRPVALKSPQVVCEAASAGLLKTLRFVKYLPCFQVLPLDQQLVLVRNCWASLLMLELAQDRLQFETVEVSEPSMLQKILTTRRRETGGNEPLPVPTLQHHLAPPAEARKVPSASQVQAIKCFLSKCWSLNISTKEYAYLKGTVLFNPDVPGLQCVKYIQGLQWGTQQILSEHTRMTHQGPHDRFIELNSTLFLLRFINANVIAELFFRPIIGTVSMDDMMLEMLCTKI

cells = type: functional, cell-based
[9] = HGIII-sPLA2 enzyme inhibition potency – biochemical, QFRET, IC50, dose response (AID 743457);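 also: green fluorescence rise as the enzyme cleaves BODIPY PC-A2 in liposomes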
[10] = target: 1-phosphatidylinositol 4,5-bisphosphate phosphodiesterase beta-3 (Homo sapiens, UniProt Q01970); experiment: Fluorescence-based biochemical high throughput dose response assay to identify inhibitors of phospholipase C isozymes (PLC-B3).
Sequence of 1-phosphatidylinositol 4,5-bisphosphate phosphodiesterase beta-3 (Q01970 whole entry): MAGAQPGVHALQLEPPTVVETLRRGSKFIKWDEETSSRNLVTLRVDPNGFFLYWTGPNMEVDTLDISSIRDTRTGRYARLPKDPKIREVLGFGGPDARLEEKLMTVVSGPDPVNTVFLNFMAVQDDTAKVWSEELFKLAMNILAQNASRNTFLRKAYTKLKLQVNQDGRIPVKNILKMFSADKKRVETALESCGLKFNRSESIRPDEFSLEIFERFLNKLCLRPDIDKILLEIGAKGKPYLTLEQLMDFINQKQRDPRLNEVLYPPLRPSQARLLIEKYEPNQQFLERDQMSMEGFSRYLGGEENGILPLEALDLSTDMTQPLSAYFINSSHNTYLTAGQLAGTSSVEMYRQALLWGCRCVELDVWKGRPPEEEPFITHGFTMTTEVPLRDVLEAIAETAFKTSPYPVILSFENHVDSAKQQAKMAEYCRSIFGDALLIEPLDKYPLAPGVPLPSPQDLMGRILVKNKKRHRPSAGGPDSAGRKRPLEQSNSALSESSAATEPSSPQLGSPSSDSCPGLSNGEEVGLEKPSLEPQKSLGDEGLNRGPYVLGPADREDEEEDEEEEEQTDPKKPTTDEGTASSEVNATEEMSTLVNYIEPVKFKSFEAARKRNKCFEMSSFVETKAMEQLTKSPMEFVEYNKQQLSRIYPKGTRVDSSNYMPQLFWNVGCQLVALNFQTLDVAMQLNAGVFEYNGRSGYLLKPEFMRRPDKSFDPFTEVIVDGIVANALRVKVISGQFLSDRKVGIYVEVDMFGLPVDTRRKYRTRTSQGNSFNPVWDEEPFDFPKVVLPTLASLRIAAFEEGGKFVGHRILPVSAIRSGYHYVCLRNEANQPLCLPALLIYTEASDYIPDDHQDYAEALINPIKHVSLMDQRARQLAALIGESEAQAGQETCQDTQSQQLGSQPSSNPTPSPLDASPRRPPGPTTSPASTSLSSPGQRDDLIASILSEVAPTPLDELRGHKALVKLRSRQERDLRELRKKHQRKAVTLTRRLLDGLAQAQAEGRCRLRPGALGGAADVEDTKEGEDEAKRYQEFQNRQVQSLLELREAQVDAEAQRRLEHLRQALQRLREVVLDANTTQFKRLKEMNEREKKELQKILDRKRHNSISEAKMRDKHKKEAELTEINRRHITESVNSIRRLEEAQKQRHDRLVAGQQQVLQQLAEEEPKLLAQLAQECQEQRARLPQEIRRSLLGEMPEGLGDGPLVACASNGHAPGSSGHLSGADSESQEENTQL

[11] = target: 1-phosphatidylinositol 4,5-bisphosphate phosphodiesterase gamma-1 (Homo sapiens, UniProt P19174); experiment: Counterscreen for inhibitors of phospholipase C isozymes (PLC-B3): Fluorescence-based biochemical high throughput dose response assay to identify inhibitors of phospholipase C isozymes (PLC-gamma1).
[12] = T. cruzi growth inhibition in host cells, dose response, cell-based, plate reader, dry powder, set 2 (AID 652275); type: functional

- EC50 [1]: > 67.6 µM (inactive)
SMILES: Cc1cccc(C(=N)NOC(=O)c2ccco2)c1

SMILES: C/C(=N\NC(=O)c1ccc(-c2ccccc2)cc1)C1C(=O)c2ccccc2C1=O
- IC50 (Albumin): > 94.1 µM (inactive)
- EC50 (Streptococcus): 4.32 µM (active)
- EC50 [2]: 0.557 µM (active)

SMILES: O=C(CCS(=O)(=O)c1ccc(Cl)cc1)Nc1nc(-c2ccncc2)cs1
- AC50 [3]: < 3.35 µM (active)
- EC50 [4]: 5.04 µM (active)
- AC50 (Paired box protein Pax-8): 8.17 µM (active)
- EC50 [5]: > 150 µM (inactive)
- EC50 [6]: 27.9 µM (active)
- EC50 [7]: > 180 µM (inactive)

SMILES: Nc1nc(-c2ccccc2)c(-c2ccc([N+](=O)[O-])cc2)s1
- AbsAC35 (Plasmodium falciparum): 103.54 µM

SMILES: C/C=C/c1ccc2n(c1=O)C[C@H]1[C@H](CO)[C@@H](C(=O)N3CCc4ccccc4C3)N(C(=O)C3CC3)[C@@H]21.C/C=C\c1ccc2n(c1=O)C[C@H]1[C@H](CO)[C@@H](C(=O)N3CCc4ccccc4C3)N(C(=O)C3CC3)[C@@H]21
- AC50 (HeLa): > 52 µM (inactive)

SMILES: Cc1ccn2c(Cc3ccccc3)c(-c3ccc(Br)cc3)nc2c1
- IC50 [8]: > 67.6 µM (inactive)
- IC50 (cells): > 67.6 µM (inactive)

SMILES: O=C(/C=C/c1cccs1)NC(=S)NNC(=O)Cc1cccs1
- IC50 [9]: 37 µM (inactive)
- EC50 (Streptococcus): 5.99 µM (active)
- EC50 [2]: 2.01 µM (active)

SMILES: Nc1ncnc2c1ncn2[C@@H]1O[C@H](COP(=O)(O)CP(=O)(O)O)[C@@H](O)[C@H]1O [PHOSPHOMETHYLPHOSPHONIC ACID ADENOSYL ESTER]
- IC50 [10]: > 122 µM (inactive)
- IC50 [11]: 2.2 µM (active)

SMILES: CC(C)N1CC2(CN(Cc3ccccc3F)C2)Oc2c(NC(=O)c3ccncc3)cccc2C1=O
- AC50 [12]: 0.747 µM (active)

From ChEMBL document CHEMBL1201862, “PubChem BioAssay data set” (2004)
